Measurements as given in PMC7676998 (Journal of medicinal chemistry, 2019).
Where two headings read alike, the source gives them in different places.

How the values were obtained:
adrenergic α1A receptor = target: T1, adrenergic α1A receptor (Homo sapiens, UniProt P35348); test: Radioligand binding, adrenergic α1A
T1 sequence (P35348 1-466): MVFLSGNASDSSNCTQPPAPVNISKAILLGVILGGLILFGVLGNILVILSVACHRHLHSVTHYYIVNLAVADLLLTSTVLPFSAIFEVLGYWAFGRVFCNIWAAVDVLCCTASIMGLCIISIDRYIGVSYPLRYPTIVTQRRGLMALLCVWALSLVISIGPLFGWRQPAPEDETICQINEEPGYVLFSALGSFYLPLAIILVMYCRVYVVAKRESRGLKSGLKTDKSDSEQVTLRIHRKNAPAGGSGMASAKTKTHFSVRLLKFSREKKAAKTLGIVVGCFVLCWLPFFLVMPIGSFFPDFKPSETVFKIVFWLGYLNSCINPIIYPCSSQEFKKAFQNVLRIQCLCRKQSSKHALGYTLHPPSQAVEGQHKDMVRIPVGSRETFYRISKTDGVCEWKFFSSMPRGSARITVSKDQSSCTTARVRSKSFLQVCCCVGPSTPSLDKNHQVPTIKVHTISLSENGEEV

adrenergic α1B receptor = target: T2, adrenergic α1B receptor (Homo sapiens, UniProt P35368); test: Radioligand binding, adrenergic α1B
T2 sequence (P35368 1-520): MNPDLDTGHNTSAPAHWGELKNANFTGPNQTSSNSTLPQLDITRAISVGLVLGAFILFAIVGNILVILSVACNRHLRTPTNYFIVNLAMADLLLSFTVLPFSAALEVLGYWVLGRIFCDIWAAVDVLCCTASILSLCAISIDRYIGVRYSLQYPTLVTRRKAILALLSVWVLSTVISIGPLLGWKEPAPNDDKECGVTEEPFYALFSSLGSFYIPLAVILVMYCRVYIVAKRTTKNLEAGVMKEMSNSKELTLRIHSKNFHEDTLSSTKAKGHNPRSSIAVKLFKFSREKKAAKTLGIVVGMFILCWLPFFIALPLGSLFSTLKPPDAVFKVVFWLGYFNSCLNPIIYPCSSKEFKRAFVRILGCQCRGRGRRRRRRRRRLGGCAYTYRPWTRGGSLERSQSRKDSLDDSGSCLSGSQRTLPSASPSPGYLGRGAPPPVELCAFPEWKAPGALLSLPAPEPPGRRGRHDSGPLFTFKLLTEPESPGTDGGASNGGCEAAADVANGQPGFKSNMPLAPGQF

adrenergic α1D receptor = target: T3, adrenergic α1D receptor (Homo sapiens, UniProt P25100); test: Radioligand binding, adrenergic α1D
T3 sequence (P25100 1-572): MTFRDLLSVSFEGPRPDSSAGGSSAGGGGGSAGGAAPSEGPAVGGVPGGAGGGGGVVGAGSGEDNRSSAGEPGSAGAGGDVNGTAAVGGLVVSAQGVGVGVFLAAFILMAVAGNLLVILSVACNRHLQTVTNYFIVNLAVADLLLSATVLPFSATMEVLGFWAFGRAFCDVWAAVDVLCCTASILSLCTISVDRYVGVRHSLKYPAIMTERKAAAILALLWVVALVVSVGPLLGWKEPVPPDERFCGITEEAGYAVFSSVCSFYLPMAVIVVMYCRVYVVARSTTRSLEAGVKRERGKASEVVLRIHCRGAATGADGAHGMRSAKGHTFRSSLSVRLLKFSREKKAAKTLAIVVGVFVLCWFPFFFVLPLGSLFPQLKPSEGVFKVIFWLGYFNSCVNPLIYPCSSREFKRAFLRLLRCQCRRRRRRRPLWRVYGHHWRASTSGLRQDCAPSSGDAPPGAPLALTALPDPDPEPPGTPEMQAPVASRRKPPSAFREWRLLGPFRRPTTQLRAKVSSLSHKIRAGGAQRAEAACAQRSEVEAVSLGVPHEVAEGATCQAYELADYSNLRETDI

adrenergic α2A receptor = target: T4, adrenergic α2A receptor (Homo sapiens, UniProt P08913); test: Radioligand binding, adrenergic α2A
T4 sequence (P08913 1-465): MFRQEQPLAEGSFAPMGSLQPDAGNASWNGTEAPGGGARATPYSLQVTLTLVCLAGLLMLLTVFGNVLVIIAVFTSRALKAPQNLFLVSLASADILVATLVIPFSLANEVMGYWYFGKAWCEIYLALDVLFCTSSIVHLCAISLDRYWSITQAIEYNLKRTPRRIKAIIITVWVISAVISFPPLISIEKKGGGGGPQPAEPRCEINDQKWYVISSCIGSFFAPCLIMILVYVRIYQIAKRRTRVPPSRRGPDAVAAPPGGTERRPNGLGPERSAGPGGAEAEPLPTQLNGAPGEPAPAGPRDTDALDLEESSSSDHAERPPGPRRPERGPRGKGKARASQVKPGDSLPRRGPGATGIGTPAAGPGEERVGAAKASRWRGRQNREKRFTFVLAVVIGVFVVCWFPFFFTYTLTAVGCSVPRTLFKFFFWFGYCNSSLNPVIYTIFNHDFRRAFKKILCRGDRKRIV

adrenergic α2B receptor = target: T5, adrenergic α2B receptor (Homo sapiens, UniProt P18089); type: binding
T5 sequence (P18089 1-450): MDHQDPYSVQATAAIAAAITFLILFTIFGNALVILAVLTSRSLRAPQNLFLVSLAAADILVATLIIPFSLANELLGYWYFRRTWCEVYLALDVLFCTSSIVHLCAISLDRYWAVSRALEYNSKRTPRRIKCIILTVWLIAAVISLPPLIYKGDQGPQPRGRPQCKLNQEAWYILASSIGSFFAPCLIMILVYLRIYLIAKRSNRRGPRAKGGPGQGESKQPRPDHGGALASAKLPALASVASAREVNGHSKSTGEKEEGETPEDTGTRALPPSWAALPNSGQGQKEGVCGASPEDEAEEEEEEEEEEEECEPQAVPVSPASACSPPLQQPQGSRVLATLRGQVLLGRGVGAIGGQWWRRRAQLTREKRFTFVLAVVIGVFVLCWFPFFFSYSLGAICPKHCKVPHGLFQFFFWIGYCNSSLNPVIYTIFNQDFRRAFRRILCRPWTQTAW

[1] = target: delta opioid receptor (DOP) (Homo sapiens, UniProt P41143); test: Radioligand binding, delta opioid receptor
mu opioid receptor (MOP) = mu opioid receptor (MOP) (Homo sapiens, UniProt P35372); type: binding
nociceptin NOP (ORL1) = nociceptin NOP (ORL1) (Homo sapiens, UniProt P41146); test: Radioligand binding, nociceptin receptor
MOP = MOP (Homo sapiens, UniProt P35372); type: cell-based
α1A adrenergic receptor = target: T6, α1A adrenergic receptor (Homo sapiens, UniProt P35348); type: cell-based
T6 sequence (P35348 1-466): T1 sequence (P35348 1-466)

α1B adrenergic receptor = target: T7, α1B adrenergic receptor (Homo sapiens, UniProt P35368); type: cell-based
T7 sequence (P35368 1-520): T2 sequence (P35368 1-520)

α1D adrenergic receptor = target: T8, α1D adrenergic receptor (Homo sapiens, UniProt P25100); type: cell-based
T8 sequence (P25100 1-572): T3 sequence (P25100 1-572)

α2C adrenergic receptor = target: T9, α2C adrenergic receptor (Homo sapiens, UniProt P18825); type: cell-based
T9 sequence (P18825 1-462): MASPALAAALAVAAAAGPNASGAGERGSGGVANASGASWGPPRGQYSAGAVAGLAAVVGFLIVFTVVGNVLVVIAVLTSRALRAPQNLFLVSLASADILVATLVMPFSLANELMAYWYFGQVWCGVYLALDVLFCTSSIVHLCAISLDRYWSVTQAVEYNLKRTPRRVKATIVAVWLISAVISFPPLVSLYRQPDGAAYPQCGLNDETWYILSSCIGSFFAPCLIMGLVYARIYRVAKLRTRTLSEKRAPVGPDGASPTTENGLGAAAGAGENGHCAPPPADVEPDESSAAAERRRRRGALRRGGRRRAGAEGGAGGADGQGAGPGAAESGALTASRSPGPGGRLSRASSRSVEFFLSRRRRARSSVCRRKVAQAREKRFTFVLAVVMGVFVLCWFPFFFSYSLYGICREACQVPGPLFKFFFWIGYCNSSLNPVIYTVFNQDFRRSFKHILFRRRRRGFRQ

KOP = KOP (Homo sapiens, UniProt P41145); test: cell-based; type: cell-based
Sprague-Dawley rats [2] = settings: rat, in vivo, iv, 10 mg/kg
Sprague-Dawley rats [3] = settings: rat, in vivo, iv
rats = settings: Sprague-Dawley, rat, in vivo
[4] = system: human opioid receptors (MOP); settings: BRET assay; in words ref 14; cited from earlier work
guinea pig ileum = settings: in words ref 15; cited from earlier work

Sequence of nociceptin NOP (ORL1) (P41146 whole entry): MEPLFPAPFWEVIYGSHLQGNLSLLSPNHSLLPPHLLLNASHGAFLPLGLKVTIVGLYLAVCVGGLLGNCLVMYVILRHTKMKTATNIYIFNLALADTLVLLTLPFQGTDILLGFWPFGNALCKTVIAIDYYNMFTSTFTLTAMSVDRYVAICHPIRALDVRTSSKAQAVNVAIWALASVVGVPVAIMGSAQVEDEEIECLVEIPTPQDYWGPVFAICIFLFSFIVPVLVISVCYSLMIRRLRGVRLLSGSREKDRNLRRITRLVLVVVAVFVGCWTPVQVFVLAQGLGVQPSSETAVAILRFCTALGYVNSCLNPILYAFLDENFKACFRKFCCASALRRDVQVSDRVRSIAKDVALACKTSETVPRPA
Sequence of MOP (P35372 whole entry): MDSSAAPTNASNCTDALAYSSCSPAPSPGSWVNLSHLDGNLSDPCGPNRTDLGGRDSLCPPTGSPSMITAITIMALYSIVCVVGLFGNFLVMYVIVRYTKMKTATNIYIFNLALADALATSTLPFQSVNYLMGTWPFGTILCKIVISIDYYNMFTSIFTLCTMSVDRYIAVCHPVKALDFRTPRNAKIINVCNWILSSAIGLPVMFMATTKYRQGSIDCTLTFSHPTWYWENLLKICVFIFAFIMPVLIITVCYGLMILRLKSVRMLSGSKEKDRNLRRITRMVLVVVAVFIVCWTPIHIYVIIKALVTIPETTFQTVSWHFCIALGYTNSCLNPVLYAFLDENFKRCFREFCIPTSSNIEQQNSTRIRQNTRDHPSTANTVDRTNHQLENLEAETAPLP
Sequence of mu opioid receptor (MOP) (P35372 whole entry): as above
Sequence of delta opioid receptor (DOP) (P41143 whole entry): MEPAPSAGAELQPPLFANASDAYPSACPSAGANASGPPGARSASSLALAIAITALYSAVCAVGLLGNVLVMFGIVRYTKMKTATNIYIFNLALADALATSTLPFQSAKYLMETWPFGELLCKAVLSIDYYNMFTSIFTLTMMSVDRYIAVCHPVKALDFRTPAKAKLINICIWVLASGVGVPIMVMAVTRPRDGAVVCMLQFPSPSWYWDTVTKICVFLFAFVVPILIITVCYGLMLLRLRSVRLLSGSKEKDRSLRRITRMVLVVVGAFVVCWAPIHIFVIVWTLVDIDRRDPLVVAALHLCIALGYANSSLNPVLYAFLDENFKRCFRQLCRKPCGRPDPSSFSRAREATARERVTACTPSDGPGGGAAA
Sequence of KOP (P41145 whole entry): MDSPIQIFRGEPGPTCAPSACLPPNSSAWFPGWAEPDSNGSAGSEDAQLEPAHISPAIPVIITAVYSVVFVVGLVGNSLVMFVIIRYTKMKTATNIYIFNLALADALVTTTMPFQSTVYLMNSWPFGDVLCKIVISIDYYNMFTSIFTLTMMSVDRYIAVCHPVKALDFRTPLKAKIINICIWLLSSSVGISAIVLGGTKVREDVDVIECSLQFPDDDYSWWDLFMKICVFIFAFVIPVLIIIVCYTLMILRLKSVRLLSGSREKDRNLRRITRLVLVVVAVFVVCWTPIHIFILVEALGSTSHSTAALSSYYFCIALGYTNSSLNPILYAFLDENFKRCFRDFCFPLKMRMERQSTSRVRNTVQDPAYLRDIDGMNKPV

CC[C@@H]1CN2CCc3c([nH]c4ccccc34)[C@@H]2C[C@@H]1/C(=C\OC)C(=O)OC [corynantheidine]
percent displacement of bound radioligand, adrenergic α1A (adrenergic α1A receptor; 100 nM test compound): 45.9%
percent displacement of bound radioligand, adrenergic α1A (adrenergic α1A receptor; 10,000 nM test compound): 100.5%
percent displacement of bound radioligand, adrenergic α1B (adrenergic α1B receptor; 100 nM test compound): 19.6%
percent displacement of bound radioligand, adrenergic α1B (adrenergic α1B receptor; 10,000 nM test compound): 91.0%
percent displacement of bound radioligand, adrenergic α1D (adrenergic α1D receptor; 100 nM test compound): 73.5%
percent displacement of bound radioligand, adrenergic α1D (adrenergic α1D receptor; 10,000 nM test compound): 101.2%
fold higher affinity at the α−1D receptor than mitragynine (adrenergic α1D receptor; ratio of Ki versus mitragynine): 131 fold
percent displacement of bound radioligand, adrenergic a2A (adrenergic α2A receptor; 100 nM test compound): 27.2%
percent displacement of bound radioligand, adrenergic a2A (adrenergic α2A receptor; 10,000 nM test compound): 95.1%
percent displacement of bound radioligand, adrenergic α2B (adrenergic α2B receptor; 100 nM test compound): 8.5%
percent displacement of bound radioligand, adrenergic α2B (adrenergic α2B receptor; 10,000 nM test compound): 79.9%
percent displacement of bound radioligand, opioid δ ([1]; 100 nM test compound): 8.6%
percent displacement of bound radioligand, opioid δ ([1]; 10,000 nM test compound): 31.4%
percent displacement of bound radioligand, opioid μ (mu opioid receptor (MOP); 100 nM test compound): 39.6%
percent displacement of bound radioligand, opioid μ (mu opioid receptor (MOP); 10,000 nM test compound): 96.8%
percent displacement of bound radioligand, nociceptin NOP (ORL1) (nociceptin NOP (ORL1); 100 nM test compound): −1.3%
percent displacement of bound radioligand, nociceptin NOP (ORL1) (nociceptin NOP (ORL1); 10,000 nM test compound): 27.0%

CC[C@@H]1CN2CCc3c([nH]c4cccc(OC)c34)[C@@H]2C[C@@H]1/C(=C\OC)C(=O)OC [mitragynine]
percent displacement of bound radioligand, adrenergic α1B (adrenergic α1B receptor; 100 nM test compound): −12.5%
functional effect at MOP (MOP): partial agonists
agonist effect at α1A (α1A adrenergic receptor): partial agonist
antagonist effect at α−1A (α1A adrenergic receptor): competitive antagonist effects
antagonist effect at α−1B (α1B adrenergic receptor): competitive antagonist effects
agonist effect at α1D (α1D adrenergic receptor): partial agonist
antagonist effect at α−1D (α1D adrenergic receptor): competitive antagonist effects
antagonist effect at α−2C (α2C adrenergic receptor): competitive antagonist effects

CC[C@@H]1CN2CCc3c([nH]c4cccc(OC)c34)[C@H]2C[C@@H]1/C(=C\OC)C(=O)OC [speciociliatine]
percent displacement of bound radioligand, nociceptin NOP (ORL1) (nociceptin NOP (ORL1); 100 nM test compound): −14.9%
functional effect at MOP (MOP): partial agonists
functional effect at KOP (KOP): no agonist or antagonist effects
antinociceptive effects in hot plate test (Sprague-Dawley rats [2]): had antinociceptive effects
change in body temperature (hypothermia) (Sprague-Dawley rats [3]): produced hypothermia
lethality (rats dead / rats tested) (rats): 5/21
agonist / antagonist activity at human opioid receptors [4]: no measurable agonist activity
inhibition of electrically induced twitch contraction (guinea pig ileum): maximum inhibition of electrically induced twitch contraction of guinea pig ileum similar to morphine
